How the values were obtained:
[1] = test system: Mycobacterium tuberculosis Erdman (autoluminescent); test: GRinf, maximum normalised growth rate inhibition (unitless (-1 to 1)); higher = less effect (negative = killing)
Description: (§1)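 DiaMOND equipotent two-drug combination dose responses against autoluminescent M. tuberculosis Erdman in 8 in vitro models. Read-out is OD600, or luminescence for the intracellular and dormancy models, normalised to untreated wells. Hill-fit Einf, AUC25 and GRinf are potency metrics; FIC50 and FIC90 are Loewe-additivity fractional inhibitory concentrations, given as log2 (negative = synergy). Replicates are averaged.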

[2] = test system: Mycobacterium tuberculosis Erdman (autoluminescent); test: Einf, fitted maximum growth inhibition of combination (fraction); higher = stronger maximal inhibition
Description: as §1

[3] = test system: Mycobacterium tuberculosis Erdman (autoluminescent); test: FIC90 (Loewe) at 90% inhibition (log2); higher = more antagonistic
Description: as §1

[4] = test system: Mycobacterium tuberculosis Erdman (autoluminescent); test: AUC25, normalised area under dose response up to IC25 (fraction (0-1)); higher = more potent at low dose
Description: as §1

[5] = test system: Mycobacterium tuberculosis Erdman (autoluminescent); test: FIC50 (Loewe) at 50% inhibition (log2); higher = more antagonistic
Description: as §1

CC(C)/N=c1\cc2n(-c3ccc(Cl)cc3)c3ccccc3nc-2cc1Nc1ccc(Cl)cc1 [clofazimine] + CC[C@@H](CO)NCCN[C@@H](CC)CO [ethambutol]
Conditions	AUC25, [4]	Einf, [2]	FIC50, [5]	FIC90, [3]	GRinf, [1]
in vitro model: acidic pH 5.7, time point: constant (~7 days, model-specific)	0.101	0.702	0.298	–	0.0851
in vitro model: acidic pH 5.7, time point: terminal (~4-5 doublings, model-specific)	0.0812	0.937	0.474	0.294	-0.228
in vitro model: intracellular J774, time point: constant = terminal	–	1	–	-0.448	-0.789

Conditions	AUC25, [4]	Einf, [2]	FIC50, [5]	FIC90, [3]	GRinf, [1]
in vitro model: butyrate, time point: constant (~7 days, model-specific)	0.0939	0.947	0.311	–	-0.0791
in vitro model: butyrate, time point: terminal (~4-5 doublings, model-specific)	0.0809	0.975	0.299	0.104	-0.0975
in vitro model: cholesterol 0.05 mM, time point: constant (~7 days, model-specific)	0.13	0.635	0.526	–	-0.0623
in vitro model: cholesterol 0.05 mM, time point: terminal (~4-5 doublings, model-specific)	0.137	0.854	0.199	–	-0.424
in vitro model: cholesterol-high 0.2 mM, time point: constant (~7 days, model-specific)	0.089	0.983	0.491	–	-0.666
in vitro model: cholesterol-high 0.2 mM, time point: terminal (~4-5 doublings, model-specific)	0.0861	0.999	0.255	0.466	-0.935
in vitro model: dormancy (butyrate + nitrate, low O2), time point: constant (~7 days, model-specific)	0.0731	0.788	-0.136	–	0.516
in vitro model: dormancy (butyrate + nitrate, low O2), time point: terminal (~4-5 doublings, model-specific)	0.114	0.967	0.277	0.818	-0.0829
in vitro model: standard 7H9 glycerol, time point: constant = terminal	0.111	0.963	-0.113	0.12	-0.234
in vitro model: valerate, time point: constant (~7 days, model-specific)	0.144	0.899	0.000309	–	-0.321
in vitro model: valerate, time point: terminal (~4-5 doublings, model-specific)	0.0819	0.913	0.0811	-0.728	-2.83e-05

CC(C)/N=c1\cc2n(-c3ccc(Cl)cc3)c3ccccc3nc-2cc1Nc1ccc(Cl)cc1 [clofazimine] + CO[C@H]1/C=C/O[C@@]2(C)Oc3c(C)c(O)c4c(O)c(c(/C=N/N5CCN(C6CCCC6)CC5)c(O)c4c3C2=O)NC(=O)/C(C)=C\C=C\[C@H](C)[C@H](O)[C@@H](C)[C@@H](O)[C@@H](C)[C@H](OC(C)=O)[C@@H]1C [rifapentine]
Conditions	AUC25, [4]	Einf, [2]	FIC50, [5]	FIC90, [3]	GRinf, [1]
in vitro model: acidic pH 5.7, time point: constant (~7 days, model-specific)	0.0913	0.879	0.0615	0.794	-0.198
in vitro model: acidic pH 5.7, time point: terminal (~4-5 doublings, model-specific)	0.0911	0.986	-0.0081	0.123	-0.304
in vitro model: intracellular J774, time point: constant = terminal	–	0.988	–	0.278	-0.308

Conditions	AUC25, [4]	Einf, [2]	FIC50, [5]	FIC90, [3]	GRinf, [1]
in vitro model: butyrate, time point: constant (~7 days, model-specific)	0.112	0.95	0.36	0.54	-0.0864
in vitro model: butyrate, time point: terminal (~4-5 doublings, model-specific)	0.0945	0.986	0.279	0.504	-0.0855
in vitro model: cholesterol 0.05 mM, time point: constant (~7 days, model-specific)	0.137	0.651	1.24	–	-0.17
in vitro model: cholesterol 0.05 mM, time point: terminal (~4-5 doublings, model-specific)	0.111	0.887	1.3	1.44	-0.127
in vitro model: cholesterol-high 0.2 mM, time point: constant (~7 days, model-specific)	0.102	0.924	0.657	1.06	-0.717
in vitro model: cholesterol-high 0.2 mM, time point: terminal (~4-5 doublings, model-specific)	0.0885	0.996	0.714	0.543	-0.813
in vitro model: dormancy (butyrate + nitrate, low O2), time point: constant (~7 days, model-specific)	0.0864	0.932	0.121	0.16	0.0493
in vitro model: dormancy (butyrate + nitrate, low O2), time point: terminal (~4-5 doublings, model-specific)	0.057	0.984	0.512	0.536	-0.373
in vitro model: standard 7H9 glycerol, time point: constant = terminal	0.1	0.967	0.18	0.35	-0.11
in vitro model: valerate, time point: constant (~7 days, model-specific)	0.136	0.885	0.297	–	-0.112
in vitro model: valerate, time point: terminal (~4-5 doublings, model-specific)	0.0746	0.918	0.0341	0.667	0.116

CC(C)/N=c1\cc2n(-c3ccc(Cl)cc3)c3ccccc3nc-2cc1Nc1ccc(Cl)cc1 [clofazimine] + CO[C@H]1/C=C/O[C@@]2(C)Oc3c(C)c(O)c4c(O)c(c(/C=N/N5CCN(C)CC5)c(O)c4c3C2=O)NC(=O)/C(C)=C\C=C\[C@H](C)[C@H](O)[C@@H](C)[C@@H](O)[C@@H](C)[C@H](OC(C)=O)[C@@H]1C [rifampicin]
Conditions	AUC25, [4]	Einf, [2]	FIC50, [5]	FIC90, [3]	GRinf, [1]
in vitro model: acidic pH 5.7, time point: constant (~7 days, model-specific)	0.0889	0.874	-0.0436	-1.95	-0.208
in vitro model: acidic pH 5.7, time point: terminal (~4-5 doublings, model-specific)	0.0797	0.986	0.0811	-0.172	-0.273
in vitro model: intracellular J774, time point: constant = terminal	–	0.967	–	0.0974	-0.265

Conditions	AUC25, [4]	Einf, [2]	FIC50, [5]	FIC90, [3]	GRinf, [1]
in vitro model: butyrate, time point: constant (~7 days, model-specific)	0.117	0.936	0.216	0.25	-0.0602
in vitro model: butyrate, time point: terminal (~4-5 doublings, model-specific)	0.104	0.979	0.0822	0.348	-0.0537
in vitro model: cholesterol 0.05 mM, time point: constant (~7 days, model-specific)	0.113	0.573	0.4	–	0.303
in vitro model: cholesterol 0.05 mM, time point: terminal (~4-5 doublings, model-specific)	0.0926	0.867	1.24	2.57	0.0118
in vitro model: cholesterol-high 0.2 mM, time point: constant (~7 days, model-specific)	0.0989	0.907	0.773	2.49	-0.497
in vitro model: cholesterol-high 0.2 mM, time point: terminal (~4-5 doublings, model-specific)	0.0908	1	1.01	0.724	-0.955
in vitro model: dormancy (butyrate + nitrate, low O2), time point: constant (~7 days, model-specific)	0.0883	0.893	0.2	-0.494	0.194
in vitro model: dormancy (butyrate + nitrate, low O2), time point: terminal (~4-5 doublings, model-specific)	0.062	0.97	0.0425	0.45	-0.059
in vitro model: standard 7H9 glycerol, time point: constant = terminal	0.103	0.935	-0.376	-0.394	0.00747
in vitro model: valerate, time point: constant (~7 days, model-specific)	0.119	0.907	0.421	–	-0.0677
in vitro model: valerate, time point: terminal (~4-5 doublings, model-specific)	0.0808	0.955	0.569	1.43	0.00769

CC(C)/N=c1\cc2n(-c3ccc(Cl)cc3)c3ccccc3nc-2cc1Nc1ccc(Cl)cc1 [clofazimine] + COc1c(N2C[C@@H]3CCCN[C@@H]3C2)c(F)cc2c(=O)c(C(=O)O)cn(C3CC3)c12 [moxifloxacin]
Conditions	AUC25, [4]	Einf, [2]	FIC50, [5]	FIC90, [3]	GRinf, [1]
in vitro model: acidic pH 5.7, time point: constant (~7 days, model-specific)	0.151	0.605	0.466	–	-0.0307
in vitro model: acidic pH 5.7, time point: terminal (~4-5 doublings, model-specific)	0.0976	0.937	0.107	0.181	-0.212
in vitro model: intracellular J774, time point: constant = terminal	–	0.953	–	0.341	-0.283

Conditions	AUC25, [4]	Einf, [2]	FIC50, [5]	FIC90, [3]	GRinf, [1]
in vitro model: butyrate, time point: constant (~7 days, model-specific)	0.109	0.955	0.486	1	-0.131
in vitro model: butyrate, time point: terminal (~4-5 doublings, model-specific)	0.0987	0.991	0.404	0.955	-0.125
in vitro model: cholesterol 0.05 mM, time point: constant (~7 days, model-specific)	0.153	0.711	0.262	–	-0.0492
in vitro model: cholesterol 0.05 mM, time point: terminal (~4-5 doublings, model-specific)	0.119	0.905	0.647	-0.276	-0.105
in vitro model: cholesterol-high 0.2 mM, time point: constant (~7 days, model-specific)	0.131	0.944	0.132	1.06	-0.922
in vitro model: cholesterol-high 0.2 mM, time point: terminal (~4-5 doublings, model-specific)	0.113	1	0.0758	0.41	-0.95
in vitro model: dormancy (butyrate + nitrate, low O2), time point: constant (~7 days, model-specific)	0.109	0.931	0.299	0.00346	-0.049
in vitro model: dormancy (butyrate + nitrate, low O2), time point: terminal (~4-5 doublings, model-specific)	0.0647	0.98	0.666	0.72	-0.241
in vitro model: standard 7H9 glycerol, time point: constant = terminal	0.109	0.971	0.11	0.558	-0.193
in vitro model: valerate, time point: constant (~7 days, model-specific)	0.139	0.895	-0.0703	–	-0.179
in vitro model: valerate, time point: terminal (~4-5 doublings, model-specific)	0.0871	0.941	0.137	0.7	-0.0272
